Tests used:
human CYP11B1 = target: T1, human CYP11B1 (Homo sapiens, UniProt P15538); experiment: CYP11B1 assay in V79MZh11B1 cells expressing recombinant human CYP11B1; type: cell-based; conditions: mean ± SD of 2 independent experiments; for inhibition at 1 µM: V79MZh11B1, 1 μM; for inhibition at 10 µM: V79MZh11B1, 10 μM; for inhibition at 100 µM: V79MZh11B1, 100 μM; for % CYP11B1 Inhibition: 10 μM
T1 construct: expressed in transfected cells; host or cells: V79MZh11B1 cell line (V79 hamster fibroblasts by own knowledge)
T1 sequence (P15538 25-503): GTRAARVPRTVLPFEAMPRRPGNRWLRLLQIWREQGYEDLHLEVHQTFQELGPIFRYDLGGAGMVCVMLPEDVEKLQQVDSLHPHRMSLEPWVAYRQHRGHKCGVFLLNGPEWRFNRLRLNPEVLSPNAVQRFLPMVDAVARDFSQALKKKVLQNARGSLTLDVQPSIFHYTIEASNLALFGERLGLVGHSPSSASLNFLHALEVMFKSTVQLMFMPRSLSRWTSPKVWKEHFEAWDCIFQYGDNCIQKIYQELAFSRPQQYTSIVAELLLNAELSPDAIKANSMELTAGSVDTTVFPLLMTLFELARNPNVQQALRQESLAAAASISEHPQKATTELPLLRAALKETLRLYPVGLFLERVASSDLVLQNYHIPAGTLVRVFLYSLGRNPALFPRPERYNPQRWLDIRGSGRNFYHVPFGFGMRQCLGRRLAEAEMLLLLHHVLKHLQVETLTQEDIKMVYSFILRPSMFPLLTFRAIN
Description: Applicant dissolved ˜10 mg of the Salvia m. Bunge extract (as disclosed in WO2009050451) in the required volume of 100% ethanol or 100% DMSO to obtain a 1% (w/v) extract solution. They tested 5 μL of this solution in a 500 μL assay incubation volume (final ethanol or DMSO conc. of 1%). From this 1% Salvia m. Bunge extract solution, they also prepared a 1:10 and 1:100 dilution in 100% ethanol or 100% DMSO. From these solutions, they tested 5 μL in a 500 μL assay incubation volume.
The V79MZh11B1 cell line, expressing recombinant human CYP11B1, was cultured in Dulbecco's modified Eagle (DME, Sigma) medium supplemented with 5% fetal calf serum (FCS; Sigma), penicillin G (100 U/ml), streptomycin (100 μg/ml), glutamine (2 mM) and sodium pyruvate (1 mM) at 37° C. in 5% CO2 in air. Cells were placed on 24-well cell culture plates (8×10^5 cells per well) and cultured in 1 ml DME medium per well until confluence. On the day of testing, DME medium was removed and 450 μl of fresh DMEM, containing 5 μl of the extract solution in 100% ethanol or 100% DMSO, was added to each well. There was no significant difference in CYP11B1 inhibition between DMSO or ethanol as solvent. Control wells (receiving vehicle or ketoconazole (final concentration of 50 nM) as reference compound to validate each experiment) were treated in the same way without extract solution. After 60 min at 37° C. in the CO2 incubator, the reaction was started by the addition of 50 μl of DMEM containing 100 nM of 11-deoxycorticosterone (plus 0.15 μCi of [1,2-^3H] 11-deoxycorticosterone) as substrate. All measurements were in duplicate. After 25 min, the enzyme reaction was stopped by extracting the supernatant with ethyl acetate. Samples were centrifuged (10,000×g, 10 min), and the upper phase was pipetted into fresh cups. The ethylacetate solvent was evaporated and the residue was dissolved in 40 μl of methanol and analyzed by HPLC. The following formulas were used to determine the level of conversion and percentage of enzyme inhibition.
Given the activity of the extract the Applicant looked at the activity of some of the tanshinones using the methodology described in Example 1.

V79MZh11B1 cells = experiment: MTT cellular viability assay; type: cell-based
Description: In order to check that the inhibition was not due to toxicity, a MTT [3-(4,5-dimethylthiazol-2-yl)-2,5-diphenyl-tetrazolium bromide] cellular viability assay was performed in the same cell line under the incubation conditions used in the CYP11B1 screening assay as set out in Example 2 below:
V79MZh11B1 cells were cultured on 24-well cell culture plates (8×10^5 cells per well) in 1 ml DME medium until confluence. On the day of testing, DME medium was removed and 450 μl of fresh DME medium with 5% FCS, containing 5 μl of the Salvia m. Bunge extract solution in 100% ethanol, was added to each well. Ethanol (1%) and Triton® X-100 (0.0006%) were used as vehicle and positive control (all final concentrations), respectively. All measurements were in quadruplicate. After 60 min at 37° C. in a 5% CO2, 50 μl of fresh DME medium (+5% FCS) was added to each well. After 25 min, medium was replaced by 500 μl fresh DME medium (+5% FCS) to which 25 μl of MTT solution (5 mg per ml PBS, pH 7.2) was added immediately. After 30 min, all medium was removed and the cells were lysed in 250 μl of 0.5% acetic acid (v/v), 10% SDS (w/v) in DMSO. Absorbance of formazan was measured spectrophotometrically at 570 nm wavelength

Row | Molecule | inhibition at 1 µM (human CYP11B1) | inhibition at 10 µM (human CYP11B1) | inhibition at 100 µM (human CYP11B1) | % CYP11B1 Inhibition (human CYP11B1) | Cell viability (MTT conversion into formazan, 1% ethanol = 100%) (V79MZh11B1 cells; Experiment 1, final conc. 0.0006%) | Cell viability (MTT conversion into formazan, 1% ethanol = 100%) (V79MZh11B1 cells; Experiment 2, final conc. 0.0006%) | effect on formazan formation (V79MZh11B1 cells; positive control, 0.0006%)
1 | C[C@H]1COC2=C1C(=O)C(=O)c1c2ccc2c1CCCC2(C)C [Cryptotanshinone] | 6.4 ± 1.6% | 15.4 ± 10.3% | 59.9 ± 22% |  |  |  | 
2 | Cc1cccc2c3c(ccc12)C1=C(C(=O)C3=O)[C@@H](C)CO1 [Dihydrotanshinone, 15,16-dihydrotanshinone I] | 43.3 ± 14.7% | 94% | 100% | 93.6 ± 9.1% |  |  | 
3 | Cc1coc2c1C(=O)C(=O)c1c-2ccc2c1CCCC2(C)C [Tanshinone IIA] | 5.9 ± 0.2% | 16.1 ± 13.5% | 29.4 ± 0.4% |  |  |  | 
4 | Cc1coc2c1C(=O)C(=O)c1c-2ccc2c(C)cccc12 [Tanshinone I] | 19.1 ± 7.9% | 64% | 81.1 ± 6.9% | 63.7 ± 4.5% |  |  | 
5 | Triton X-100 |  |  |  |  | 3 ± 1% | 3 ± 1% | almost fully block formazan formation
